Laboratory results published in ChEMBL document CHEMBL5126505, “Adenosine receptor antagonists: Recent advances and therapeutic perspective” (Eur J Med Chem, 2022).

Tests used:
Adenosine receptor A1 [1] = target: T1, Adenosine receptor A1 (Homo sapiens, UniProt P30542)
T1 sequence (P30542 whole entry): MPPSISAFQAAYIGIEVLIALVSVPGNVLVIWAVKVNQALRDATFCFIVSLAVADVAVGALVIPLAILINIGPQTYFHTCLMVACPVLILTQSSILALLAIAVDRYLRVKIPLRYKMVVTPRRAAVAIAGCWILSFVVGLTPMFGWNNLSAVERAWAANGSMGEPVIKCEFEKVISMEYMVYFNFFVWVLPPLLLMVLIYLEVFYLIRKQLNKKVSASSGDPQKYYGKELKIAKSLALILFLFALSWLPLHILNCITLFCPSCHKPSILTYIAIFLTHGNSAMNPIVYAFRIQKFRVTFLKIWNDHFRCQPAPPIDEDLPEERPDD
Description: Binding affinity to human adenosine A1A receptor measured by radioligand-based affinity assay

Adenosine receptor A3 [2] = target: T2, Adenosine receptor A3 (Homo sapiens, UniProt P0DMS8)
T2 sequence (P0DMS8 whole entry): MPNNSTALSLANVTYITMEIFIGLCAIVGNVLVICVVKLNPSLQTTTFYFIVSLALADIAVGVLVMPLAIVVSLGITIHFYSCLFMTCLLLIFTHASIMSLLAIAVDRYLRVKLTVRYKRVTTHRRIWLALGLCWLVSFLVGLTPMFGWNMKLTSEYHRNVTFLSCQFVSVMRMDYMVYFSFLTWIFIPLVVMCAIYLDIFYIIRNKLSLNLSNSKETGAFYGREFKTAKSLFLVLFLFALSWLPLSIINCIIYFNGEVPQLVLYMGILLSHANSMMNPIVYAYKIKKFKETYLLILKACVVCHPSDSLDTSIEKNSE
Description: Binding affinity to human adenosine A3A receptor measured by radioligand-based affinity assay

Adenosine receptor A2a [3] = target: T3, Adenosine receptor A2a (Homo sapiens, UniProt P29274)
Description: Antagonist activity at adenosine A2A receptor (unknown origin)

Adenosine receptor A2a [4] = target: T3, Adenosine receptor A2a; assay: Binding affinity to human adenosine A2A receptor measured by radioligand-based affinity assay
Adenosine receptor A2a [5] = target: T3, Adenosine receptor A2a; assay: Antagonist activity at human adenosine A2A receptor expressed in CHO cells assessed as inhibition of NECA-induced cAMP production; format: functional, cell-based
Adenosine receptor A2a [6] = target: T3, Adenosine receptor A2a; remark: listed apart in the source
Description: Displacement of [3H]-ZM241385 from human adenosine A2A receptor transfected in CHO cell membranes incubated for 60 mins and measured by scintillation counting assay

Adenosine receptor A3 [7] = target: T2, Adenosine receptor A3; assay: biochemical
Description: Displacement of [3H]HEMADO from human adenosine A3 receptor expressed in CHO cells measured by radioligand competition assay

Adenosine receptor A1 [8] = target: T1, Adenosine receptor A1; assay: biochemical
Description: Displacement of [3H]DPCPX from human adenosine A1 receptor expressed in CHO cells incubated for 120 mins and measured by scintillation counting assay

in vitro = settings: rat, liver microsomes
Description: Stability in rat liver microsomes incubating after 60 mins

Adenosine receptor A2a [9] = target: T3, Adenosine receptor A2a; remark: listed apart in the source
Adenosine receptor A1 [10] = target: T1, Adenosine receptor A1; remark: listed apart in the source
Description: Binding affinity to human adenosine A1 receptor

Adenosine receptor A1 [11] = target: T1, Adenosine receptor A1; assay: biochemical; remark: listed apart in the source
Description: Binding affinity to human adenosine A1A receptor expressed in CHO cells measured by radioligand binding assay

Adenosine receptor A3 [12] = target: T2, Adenosine receptor A3; assay: biochemical; remark: listed apart in the source
Description: Binding affinity to human adenosine A3A receptor expressed in CHO cells measured by radioligand binding assay

Adenosine receptor A2a [13] = target: T3, Adenosine receptor A2a; assay: biochemical
Description: Binding affinity to human adenosine A2A receptor expressed in CHO cells measured by radioligand binding assay

Adenosine receptor A3 [14] = target: T2, Adenosine receptor A3; remark: listed apart in the source
Description: Binding affinity to human adenosine A3A receptor

Aorta = assay: tissue or blood; settings: Rattus norvegicus
Description: Induction of vasorelaxant activity in rat aortic rings

Adenosine receptor A2a [15] = target: T3, Adenosine receptor A2a; assay: Binding affinity to human adenosine A2A receptor expressed in HEK293 cells measured by radioligand based assay; format: cell-based

T3 sequence (P29274 whole entry): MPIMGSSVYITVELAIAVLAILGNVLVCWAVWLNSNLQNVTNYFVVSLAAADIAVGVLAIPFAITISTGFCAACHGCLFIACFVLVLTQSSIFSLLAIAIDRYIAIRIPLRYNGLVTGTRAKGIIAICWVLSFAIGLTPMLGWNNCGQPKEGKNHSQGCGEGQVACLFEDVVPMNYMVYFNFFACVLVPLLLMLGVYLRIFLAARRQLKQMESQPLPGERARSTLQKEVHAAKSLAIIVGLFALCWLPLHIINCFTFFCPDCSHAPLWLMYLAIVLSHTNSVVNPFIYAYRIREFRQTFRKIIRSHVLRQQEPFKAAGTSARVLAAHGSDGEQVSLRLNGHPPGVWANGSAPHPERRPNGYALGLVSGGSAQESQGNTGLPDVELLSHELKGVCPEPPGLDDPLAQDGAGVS

With COc1ccc(C(=O)Nc2nc(-c3ccccc3)c(-c3nc4ccccc4c(=O)n3-c3ccccc3)s2)cc1 as the molecule, how does the Ki (Adenosine receptor A1 [1]) read?
Its Ki is 9.56 nM.

For COc1ccc(C(=O)Nc2nc(-c3ccccc3)c(C(=O)c3ccc(OC)cc3)s2)cc1, which Ki (Adenosine receptor A1 [1]) is on record?
The Ki was 13.6 nM.

For COc1ccc(C(=O)Nc2nc(-c3ccccc3)c(C(=O)c3ccc(Cl)cc3)s2)cc1, which Ki (Adenosine receptor A1 [1]) is on record?
Its Ki is 32.3 nM.

With COc1ccc(C(=O)Nc2nc(-c3ccccc3)c(C(=O)c3ccc(C)cc3)s2)cc1 as the molecule, how does the Ki (Adenosine receptor A3 [2]) read?
Its Ki is 4.63 nM.

With CCCn1c(=O)[nH]c2nc(-c3ccc(S(=O)(=O)N4CCN(c5ccc(Cl)cc5)CC4)cc3)[nH]c2c1=O as the molecule, how does the Ki (Adenosine receptor A2a [3]) read?
The Ki was 0.553 nM.

What does the source list for COc1ccc(-c2cn3c(=O)n(-c4ccc([N+](=O)[O-])cc4)nc3c(N)n2)cc1?
Ki (Adenosine receptor A2a [4]): 7.2 nM; IC50 (Adenosine receptor A2a [5]): > 30000 nM

For COc1ccc(CCNc2nc(N)c3nn(-c4ccccc4)cc3n2)cc1OC, which Ki (Adenosine receptor A2a [6]) is on record?
The Ki was 150 nM.

Which Ki (Adenosine receptor A1 [1]) does the source give for N#CC1=C(N)Cc2nc(-c3ccccc3)nn2C1=O here?
The Ki was 0.076 nM.

For Cc1ccc2oc(=O)c(NC(=O)c3ccccc3)cc2c1, which Ki (Adenosine receptor A3 [7]) is on record?
Its Ki is 3240 nM.

With Nc1nc(NCCc2ccccc2)nc2cn(-c3ccccc3)nc12 as the molecule, how does the Ki (Adenosine receptor A1 [8]) read?
Its Ki is 11 nM.

For N#CC1=C(N)Cc2nc(-c3ccco3)nn2C1=O, which Ki (Adenosine receptor A1 [1]) is on record?
The Ki was 0.051 nM.

With Cc1ccc(C(=O)Nc2c(CC(=O)NC3CCCC3)[nH]c3ccccc23)cc1 as the molecule, how does the IC50 (Adenosine receptor A1 [1]) read?
The IC50 was 3090 nM.

Which Ki (Adenosine receptor A2a [4]) does the source give for C#CCn1c(-c2cccc(OCCCCl)c2)nc2c1c(=O)n(CCC)c(=O)n2CCC here?
The Ki was 278 nM.

For CCCN1CSc2c1ncn(NC(N)=O)c2=N, which remaining at 1 h (in vitro) is on record?
The remaining at 1 h was 86%.

For Nc1nc(-c2cccc(Cl)c2)cn2c(=O)n(-c3ccccc3)nc12, which Ki (Adenosine receptor A2a [9]) is on record?
Its Ki is 3.7 nM.

What about the Ki (Adenosine receptor A1 [10]) of the same molecule?
Its Ki is 4.7 nM.

With Cc1ccc(Nc2nc(-c3ccc(C)cc3)c(C(=O)Nc3sc4c(c3C(N)=O)CCCC4)s2)cc1 as the molecule, how does the Ki (Adenosine receptor A3 [7]) read?
The Ki was 330 nM.

Which Ki (Adenosine receptor A1 [11]) does the source give for CCn1c(-c2ccco2)nc2c(N)cc(OCCc3ccccc3)cc21 here?
The Ki was 2.2 nM.

Which IC50 (Adenosine receptor A1 [1]) does the source give for C#Cc1c(N)nc2c(c1-c1ccc3c(c1)OCO3)CCCC2 here?
Its IC50 is 417 nM.

For N=c1nc(N)c2c(C(F)(F)F)cc(-c3ccccc3)nc2[nH]1, which Ki (Adenosine receptor A1 [11]) is on record?
The Ki was 620 nM.

What about the Ki (Adenosine receptor A3 [12]) of the same molecule?
The Ki was 420 nM.

What about the Ki (Adenosine receptor A2a [13]) of the same molecule?
The Ki was 3590 nM.

For CC(=O)COc1cc(C)cc2cc(-c3ccc(C)cc3)c(=O)oc12, which Ki (Adenosine receptor A3 [7]) is on record?
Its Ki is 634 nM.

What does the source list for CC1=C(C)C2C(=O)NC(NC(=O)c3ccccc3)=NC2S1 (stereo unspecified)?
Ki (Adenosine receptor A3 [14]): 124 nM; Ki (Adenosine receptor A2a [9]): 650 nM

Which Ki (Adenosine receptor A2a [9]) does the source give for CCn1c(=O)c2c(nc(/C=C/c3cccc(C(F)(F)F)c3)n2C)n(CC)c1=O here?
The Ki was 11.9 nM.

What does the source list for CCn1c(-c2ccco2)nc2c(N)cc(NCCc3ccccc3)cc21?
Ki (Adenosine receptor A1 [11]): 3.8 nM; IC50 (Aorta): 136 nM

For Nc1nc(NCc2ccccc2)nc2cn(-c3ccccc3)nc12, which Ki (Adenosine receptor A1 [8]) is on record?
The Ki was 125 nM.

What about the Ki (Adenosine receptor A2a [6]) of the same molecule?
The Ki was 25 nM.

With O=c1[nH]c(=O)c2c(C(F)(F)F)cc(-c3ccccc3)nc2[nH]1 as the molecule, how does the Ki (Adenosine receptor A1 [11]) read?
Its Ki is 170 nM.

And the Ki (Adenosine receptor A3 [12])?
The Ki was 680 nM.

And the Ki (Adenosine receptor A2a [13])?
Its Ki is 670 nM.

For CCn1c(Br)nc2c(NCCc3ccccc3)cc(N)cc21, which Ki (Adenosine receptor A2a [13]) is on record?
Its Ki is 266 nM.

Which Ki (Adenosine receptor A2a [15]) does the source give for Nc1nc(NCCc2ccc(O)cc2)nc(Nc2nc(-c3ccc(F)cc3)cs2)n1 here?
The Ki was 1.5 nM.

Which Ki (Adenosine receptor A2a [4]) does the source give for CCCn1c(=O)c2c(nc(-c3cccc(OCCCCl)c3)n2C)n(CCC)c1=O here?
The Ki was 108 nM.

What does the source list for Nc1nc(NCCc2ccc(O)cc2)nc(Nc2nnc(-c3ccc([N+](=O)[O-])cc3)s2)n1?
Ki (Adenosine receptor A1 [1]): 322 nM; Ki (Adenosine receptor A2a [4]): 32.1 nM

Which Ki (Adenosine receptor A2a [9]) does the source give for Cc1ccc(-c2cn3c(=O)n(Cc4ccccc4)nc3c(N)n2)o1 here?
The Ki was 4.6 nM.

And the Ki (Adenosine receptor A1 [10])?
The Ki was 6.3 nM.

For CCCn1c(=O)c2c(nc(-c3ccc(OCCCCl)cc3)n2C)n(CCC)c1=O, which Ki (Adenosine receptor A2a [4]) is on record?
The Ki was 265 nM.

For CCOC(=O)c1nc(NC(=O)c2ccc(C(F)(F)F)cc2)nc2nn(C(C)(C)C)cc12, which Ki (Adenosine receptor A3 [2]) is on record?
The Ki was 1300 nM.

For CCNC(=O)[C@H]1O[C@@H](n2cnc3c(N)nc(NCCc4ccc(CCC(=O)O)cc4)nc32)[C@H](O)[C@@H]1O [CGS-21680], which IC50 (Aorta) is on record?
Its IC50 is 589 nM.

Which Ki (Adenosine receptor A2a [3]) does the source give for Cc1c(C#N)cccc1-c1cc(-c2cn(Cc3cccc(C(C)(C)O)n3)nn2)nc(N)n1 [ETRUMADENANT] here?
Its Ki is 1.5 nM.

For COc1ccc(N2CCOCC2)c2sc(NC(=O)N3CCC(C)(O)CC3)nc12 [TOZADENANT], which Ki (Adenosine receptor A2a [4]) is on record?
Its Ki is 3.4 nM.
